Experimental data published in paper PMC10490123, “Synthesis and In Vitro Anticancer Activity of Novel 4-Aryl-3-(4-methoxyphenyl)-1-phenyl-1H-pyrazolo[3,4-b]pyridines Arrest Cell Cycle and Induce Cell Apoptosis by Inhibiting CDK2 and/or CDK9” (Molecules, 2023).
“Also recorded” adds a separate entry of the source.

Key:
CDK9 = target: T1, CDK9 (Homo sapiens, UniProt P50750); experiment: In vitro CDK9 enzyme inhibition assay (BPS Bioscience kit, chemiluminescence); format: biochemical
T1 construct: purchased BPS Bioscience
T1 sequence (P50750 whole entry): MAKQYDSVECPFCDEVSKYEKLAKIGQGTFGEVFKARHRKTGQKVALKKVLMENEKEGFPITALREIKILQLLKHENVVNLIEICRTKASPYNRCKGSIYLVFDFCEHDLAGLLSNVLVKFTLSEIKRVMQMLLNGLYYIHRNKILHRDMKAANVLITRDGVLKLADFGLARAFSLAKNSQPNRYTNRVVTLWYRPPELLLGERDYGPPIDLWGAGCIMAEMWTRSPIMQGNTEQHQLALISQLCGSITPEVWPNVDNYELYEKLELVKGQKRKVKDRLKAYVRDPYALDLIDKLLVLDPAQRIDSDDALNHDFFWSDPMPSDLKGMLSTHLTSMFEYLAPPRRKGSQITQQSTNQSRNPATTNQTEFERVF
T1 sequence (O60563 whole entry partner): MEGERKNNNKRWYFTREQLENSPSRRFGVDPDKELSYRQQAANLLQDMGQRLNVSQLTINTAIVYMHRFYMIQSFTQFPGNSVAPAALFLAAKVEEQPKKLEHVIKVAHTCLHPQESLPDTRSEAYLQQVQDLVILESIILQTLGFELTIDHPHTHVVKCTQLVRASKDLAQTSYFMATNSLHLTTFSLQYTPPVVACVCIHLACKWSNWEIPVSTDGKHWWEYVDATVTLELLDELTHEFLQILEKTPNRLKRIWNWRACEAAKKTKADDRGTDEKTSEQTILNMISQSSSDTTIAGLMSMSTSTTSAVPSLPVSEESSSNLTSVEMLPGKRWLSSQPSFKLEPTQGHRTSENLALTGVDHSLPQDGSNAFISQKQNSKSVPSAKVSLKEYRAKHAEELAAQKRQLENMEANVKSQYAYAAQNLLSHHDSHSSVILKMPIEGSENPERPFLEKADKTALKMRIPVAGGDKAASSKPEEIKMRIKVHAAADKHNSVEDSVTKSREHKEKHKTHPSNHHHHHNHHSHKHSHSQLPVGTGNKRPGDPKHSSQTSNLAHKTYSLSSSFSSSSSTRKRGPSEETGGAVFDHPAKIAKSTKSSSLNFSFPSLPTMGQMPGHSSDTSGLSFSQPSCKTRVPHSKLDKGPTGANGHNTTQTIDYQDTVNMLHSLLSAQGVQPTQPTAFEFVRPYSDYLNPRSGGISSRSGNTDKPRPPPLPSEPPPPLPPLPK
Description: (§1) The CDK in vitro inhibitory activity of 9a–h and 14a–h toward CDK2 and CDK9 was performed using CDK Assay Kit (BPS Bioscience, USA) at different dilutions of 30, 10, 3, 1, 0.3, 0.1, 0.03, and 0.01 µM, measuring the chemiluminescence using BioTek™ Synergy2 Microplate Reader (BioTek, Santa Clara, CA, USA).

[1] = MTT cytotoxicity on normal cell line WI-38; format: cell-based; settings: human, WI-38 normal cells, MTT assay, mean ± SD of three experiments, read-out: In Vitro Cytotoxicity on WI-38 (IC50)
HCT-116 cancer cell line = experiment: MTT cytotoxicity assay, colon HCT-116; format: cell-based; settings: Homo sapiens, mean ± SD of three experiments, read-out: IC50 HCT116
Description: (§2) The cytotoxicity of compounds 9a–h and 14a–h against three cell lines, namely, cervical cancer Hela, breast cancer MCF7, and colon HCT-116, compared with doxorubicin as a reference compound was performed using MTT assay. The cytotoxic concentration (IC50 in µM) is illustrated in Table 1.
(§3) Standard MTT colorimetric assay was applied to test the IC50 of compounds 9a–h and 14a–h against three cell lines, namely, cervical cancer Hela, breast cancer MCF7, and colon HCT-116, compared with doxorubicin as a reference compound with the typical reported methodology of MTT colorimetric assay.

Hela cancer cell line = experiment: MTT cytotoxicity assay, cervical cancer Hela; format: cell-based; settings: Homo sapiens, mean ± SD of three experiments
Description: as §2, §3

CDK2 = target: T2, CDK2 (Homo sapiens, UniProt P24941); experiment: In vitro CDK2 enzyme inhibition assay (BPS Bioscience kit, chemiluminescence); format: biochemical
T2 construct: purchased BPS Bioscience
Description: as §1

Hela cells [2] = experiment: Cell cycle analysis (PI flow cytometry), Hela; format: cell-based
Description: (§4) Cell cycle arrest of cervical cancer cells Hela, breast cancer cells MCF7, and colon cancer cells HCT-116 were assessed for compounds 9a and 14g at their IC50.

MCF7 cancer cell line = experiment: MTT cytotoxicity assay, breast cancer MCF7; format: cell-based; settings: Homo sapiens, mean ± SD of three experiments
Description: as §2, §3

Hela cells [3] = experiment: Annexin V/PI apoptosis assay, Hela; format: cell-based; settings: IC50 concentration, 24 h
Description: An apoptotic assay using Annexin V/PI analysis for compounds 9a and 14g is evaluated. Compound 9a induced a significant level of early and late apoptosis (total = 42.19) in the Hela cell line when compared with the control cells (Table 3, Figure 5 and Figure 6).

HCT-116 cells [4] = experiment: Annexin V/PI apoptosis assay, HCT-116; format: cell-based; settings: HCT-116, IC50 concentration, 24 h
HCT-116 cells [5] = experiment: Cell cycle analysis (PI flow cytometry), HCT-116; format: cell-based; settings: HCT-116, compound at its IC50
Description: as §4

MCF7 cells [6] = experiment: Cell cycle analysis (PI flow cytometry), MCF7; format: cell-based
Description: as §4

MCF7 cells [7] = experiment: Annexin V/PI apoptosis assay, MCF7; format: cell-based; settings: MCF7, IC50 concentration, 24 h

SMILES | melting point [°C] | IC50 (HCT-116 cancer cell line) [µM] | IC50 (Hela cancer cell line) [µM] | IC50 (MCF7 cancer cell line) [µM] | also measured
COc1ccc(-c2nn(-c3ccccc3)c3nccc(-c4ccccc4)c23)cc1 [Compound 9a, 3-(4-Methoxyphenyl)-1,4-diphenyl-1H-pyrazolo[3,4-b]pyridine] | 161 to 163 | 15.3 ± 1.46 | 2.59 ± 0.16 | 6.39 ± 0.46 | IC50 (CDK9): 0.262 ± 0.013 µM; IC50 [1]: 26.4 ± 3.23 µM; IC50 (CDK2): 1.63 ± 0.009 µM; Cell cycle Comment (Hela cells [2]; compound at its IC50): cell cycle arrest at the S phase; also recorded: cell growth arrest@ S; DNA Content %G2/M (Hela cells [2]; compound at its IC50, control 14.5): 11.36%; DNA Content %S (Hela cells [2]; compound at its IC50, control 24.11): 29.54%; DNA Content %G0-G1 (Hela cells [2]; compound at its IC50, control 61.39): 59.1%; cell accumulation at S phase relative to control (Hela cells [2]; control 24.11%): 1.23 fold; Apoptosis Late (Hela cells [3]; control 0.12): 12.82%; Apoptosis Early (Hela cells [3]; control 0.49): 23.21%; Necrosis (Hela cells [3]; control 1.72): 6.16%; Apoptosis Total (Hela cells [3]; total equals early + late + necrosis, control 2.33, % printed in Figure 6 only): 42.19%
COc1ccc(-c2nn(-c3ccccc3)c3nccc(-c4ccc(Cl)cc4)c23)cc1 [Compound 9e, 4-(4-Chlorophenyl)-3-(4-methoxyphenyl)-1-phenyl-1H-pyrazolo[3,4-b]pyridine] | 210 to 212 | 16.6 ± 1.34 | 48.5 ± 4.2 | 20.3 ± 3.21 | –
COc1ccc(-c2ccnc3c2c(-c2ccc(OC)cc2)nn3-c2ccccc2)cc1 [Compound 9c, 3,4-Bis(4-methoxyphenyl)-1-phenyl-1H-pyrazolo[3,4-b]pyridine] | 198 to 200 | 43.2 ± 3.26 | 26.6 ± 3.37 | 59 ± 5.52 | –
COc1cccc2c1C(=O)c1c(O)c3c(c(O)c1C2=O)C[C@@](O)(C(=O)CO)C[C@@H]3O[C@H]1C[C@H](N)[C@H](O)[C@H](C)O1 [Doxorubicin, reference compound] | – | 2.11 ± 0.2 | 2.35 ± 0.08 | 4.57 ± 0.28 | IC50 [1]: 15.6 ± 0.37 µM
COc1ccc(-c2nn(-c3ccccc3)c3nccc(-c4ccc(OC)c(OC)c4)c23)cc1 [Compound 9h, 4-(3,4-Dimethoxyphenyl)-3-(4-methoxyphenyl)-1-phenyl-1H-pyrazolo[3,4-b]pyridine] | 165 to 167 | 9.69 ± 0.56 | 7.92 ± 1.11 | 9.7 ± 1 | –
COc1ccc(-c2nn(-c3ccccc3)c3nccc(-c4ccc(F)cc4)c23)cc1 [Compound 9d, 4-(4-Fluorophenyl)-3-(4-methoxyphenyl)-1-phenyl-1H-pyrazolo[3,4-b]pyridine] | 171 to 173 | 17.5 ± 0.98 | 19.6 ± 1.68 | 13 ± 1.33 | –
COc1ccc(-c2nn(-c3ccccc3)c3nccc(-c4ccc([N+](=O)[O-])cc4)c23)cc1 [Compound 9g, 3-(4-Methoxyphenyl)-4-(4-nitrophenyl)-1-phenyl-1H-pyrazolo[3,4-b]pyridine] | > 300 | 40 ± 3.19 | 28.3 ± 4.23 | 26.3 ± 2.85 | –
COc1ccc(-c2nn(-c3ccccc3)c3nccc(-c4ccc(C)cc4)c23)cc1 [Compound 9b, 3-(4-Methoxyphenyl)-1-phenyl-4-(p-tolyl)-1H-pyrazolo[3,4-b]pyridine] | 186 to 188 | 18 ± 1.16 | 14 ± 1.25 | 22.4 ± 3.18 | –
COc1ccc(-c2nn(-c3ccccc3)c3nccc(-c4ccc(Br)cc4)c23)cc1 [Compound 9f, 4-(4-Bromophenyl)-3-(4-methoxyphenyl)-1-phenyl-1H-pyrazolo[3,4-b]pyridine] | 217 to 219 | 16.8 ± 0.76 | 20.4 ± 1.74 | 35.6 ± 4.64 | –

The next lines start with results.

melting point [°C] | SMILES | IC50 (HCT-116 cancer cell line) [µM] | IC50 (Hela cancer cell line) [µM] | IC50 (MCF7 cancer cell line) [µM] | also measured
230 to 232 | COc1ccc(-c2nn(-c3ccccc3)c3nc(-c4ccccc4)c(C#N)c(-c4ccc(N(C)C)cc4)c23)cc1 [Compound 14f, 4-(4-(Dimethylamino)phenyl)-3-(4-methoxyphenyl)-1,6-diphenyl-1H-pyrazolo[3,4-b]pyridine-5-carbonitrile] | 40 ± 4.32 | 46.1 ± 3.7 | 19.6 ± 1.26 | –
229 to 231 | COc1ccc(-c2nn(-c3ccccc3)c3nc(-c4ccccc4)c(C#N)c(-c4ccccc4)c23)cc1 [Compound 14a, 3-(4-Methoxyphenyl)-1,4,6-triphenyl-1H-pyrazolo[3,4-b]pyridine-5-carbonitrile] | 25.8 ± 2.58 | 23.1 ± 1.63 | 20.7 ± 1.73 | –
295 to 297 | COc1ccc(-c2nn(-c3ccccc3)c3nc(-c4ccccc4)c(C#N)c(-c4ccc(O)cc4)c23)cc1 [Compound 14g, 4-(4-Hydroxyphenyl)-3-(4-methoxyphenyl)-1,6-diphenyl-1H-pyrazolo[3,4-b]pyridine-5-carbonitrile] | 1.98 ± 0.17 | 12.7 ± 1.53 | 4.66 ± 0.38 | IC50 (CDK9): 0.801 ± 0.041 µM; IC50 [1]: 21.8 ± 2.96 µM; Apoptosis Late (HCT-116 cells [4]; control 0.19): 6.95%; Apoptosis Early (HCT-116 cells [4]; control 0.63): 16.01%; Necrosis (HCT-116 cells [4]; control 1.69): 3.75%; Apoptosis Total (HCT-116 cells [4]; total equals early + late + necrosis, control 2.51): 26.71%; Cell cycle Comment (HCT-116 cells [5]): arresting cell cycle at S phase; also recorded: cell growth arrest@ S; DNA Content %G2/M (HCT-116 cells [5]; control 17.64): 13.24%; DNA Content %S (HCT-116 cells [5]; control 26.49): 34.82%; DNA Content %G0-G1 (HCT-116 cells [5]; control 55.87): 51.94%; Cell cycle Comment (MCF7 cells [6]; MCF7, compound at its IC50): arresting cell cycle for MCF7 at G2/M phase; also recorded: cell growth arrest@ G2/M; DNA Content %G2/M (MCF7 cells [6]; MCF7, compound at its IC50, control 14.86): 24.94%; DNA Content %S (MCF7 cells [6]; MCF7, compound at its IC50, control 39.02): 33.81%; DNA Content %G0-G1 (MCF7 cells [6]; MCF7, compound at its IC50, control 46.12): 41.25%; DNA accumulation at G2/M phase relative to control (MCF7 cells [6]; MCF7, control 14.86%): 1.68 fold; IC50 (CDK2): 0.46 ± 0.024 µM; Apoptosis Late (MCF7 cells [7]; control 0.27): 7.55%; Apoptosis Early (MCF7 cells [7]; control 0.44): 13.07%; Necrosis (MCF7 cells [7]; control 0.78): 2.27%; Apoptosis Total (MCF7 cells [7]; total equals early + late + necrosis, control 1.49): 22.89%
212 to 214 | COc1ccc(-c2nn(-c3ccccc3)c3nc(-c4ccccc4)c(C#N)c(-c4ccc(OC)c(OC)c4)c23)cc1 [Compound 14h, 4-(3,4-Dimethoxyphenyl)-3-(4-methoxyphenyl)-1,6-diphenyl-1H-pyrazolo[3,4-b]pyridine-5-carbonitrile] | 3.69 ± 0.11 | 31.7 ± 2.48 | 38.1 ± 2.76 | –
203 to 205 | COc1ccc(-c2nn(-c3ccccc3)c3nc(-c4ccccc4)c(C#N)c(-c4ccc(C)cc4)c23)cc1 [Compound 14b, 3-(4-Methoxyphenyl)-1,6-diphenyl-4-(p-tolyl)-1H-pyrazolo[3,4-b]pyridine-5-carbonitrile] | 36.3 ± 1.83 | 21 ± 2.18 | 21.4 ± 2.05 | –
258 to 260 | COc1ccc(-c2nn(-c3ccccc3)c3nc(-c4ccccc4)c(C#N)c(-c4ccc(Cl)cc4)c23)cc1 [Compound 14d, 4-(4-Chlorophenyl)-3-(4-methoxyphenyl)-1,6-diphenyl-1H-pyrazolo[3,4-b]pyridine-5-carbonitrile] | 31.1 ± 3.54 | 21.1 ± 2.03 | 37.2 ± 2.48 | –
207 to 209 | COc1ccc(-c2nn(-c3ccccc3)c3nc(-c4ccccc4)c(C#N)c(-c4ccc(OC)cc4)c23)cc1 [Compound 14c, 3,4-Bis(4-methoxyphenyl)-1,6-diphenyl-1H-pyrazolo[3,4-b]pyridine-5-carbonitrile] | 36.7 ± 2.02 | 41.3 ± 2.79 | 39.3 ± 3.74 | –
221 to 223 | COc1ccc(-c2nn(-c3ccccc3)c3nc(-c4ccccc4)c(C#N)c(-c4ccc(Br)cc4)c23)cc1 [Compound 14e, 4-(4-Bromophenyl)-3-(4-methoxyphenyl)-1,6-diphenyl-1H-pyrazolo[3,4-b]pyridine-5-carbonitrile] | 37.8 ± 2.63 | 37.3 ± 3.32 | 34.4 ± 2.59 | –
